PubChem BioAssay AID2060329 (Molecular Pharmacology Branch, DTP, NCI, 2025)
Where “and” joins values, the source holds several entries; their conditions need not be identical. Identical values can stand only once.

Tested on: MCF7 multi-cell spheroids with HUVEC/MSC, viability
Assay: Anticancer human tumor MCF7 cell line growth inhibition [IpAb];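 note: spheroids exposed to agents for seven days before readout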
Settings: for viability, T/C: stronger effect = lower value
Method in brief: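 Spheroids of 60% malignant cells, 25% HUVEC and 15% MSC were exposed to targeted agents combined with ipatasertib or abemaciclib. Doses started at or near clinical Cmax (10 microM when unknown) and fell in half-log steps.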

[1] = curve of first compound, second compound 0.1 µM
[2] = curve of first compound, second compound 0.316 µM
[3] = curve of first compound, second compound 1 µM
[4] = curve of first compound, second compound 3.16 µM
[5] = curve of first compound, second compound 10 µM
[6] = second compound 0.1 µM, first compound 0.00316 µM
[7] = second compound 0.1 µM, first compound 0.01 µM
[8] = second compound 0.1 µM, first compound 0.0316 µM
[9] = second compound 0.1 µM, first compound 0.1 µM
[10] = second compound 0.316 µM, first compound 0.00316 µM
[11] = second compound 0.316 µM, first compound 0.01 µM
[12] = second compound 0.316 µM, first compound 0.0316 µM
[13] = second compound 0.316 µM, first compound 0.1 µM
[14] = second compound 1 µM, first compound 0.00316 µM
[15] = second compound 1 µM, first compound 0.01 µM
[16] = second compound 1 µM, first compound 0.0316 µM
[17] = second compound 1 µM, first compound 0.1 µM

`CC(C)(C)c1cnc(CSc2cnc(NC(=O)C3CCNCC3)s2)o1` + CC(C)NCC(C(=O)N1CCN(c2ncnc3c2C(C)CC3O)CC1)c1ccc(Cl)cc1 was tested, and the IC50 [1] was 89.4 nM, the IC50 [2] was 87.5 nM and the IC50 [3] was 81.1 nM. The IC50 [4] was 40.4 nM, the IC50 [5] was 9.49 nM and the viability, T/C (second compound 0.1 µM, first compound 0.00949 µM) was 87.9%. It also gave a viability, T/C (second compound 0.1 µM, first compound 0.03 µM) of 98%, a viability, T/C (second compound 0.1 µM, first compound 0.0949 µM) of 47.7% and a viability, T/C (second compound 0.1 µM, first compound 0.3 µM) of 22.2%. It also gave a viability, T/C (second compound 0.1 µM, first compound 0.949 µM) of 29.6%, a viability, T/C (second compound 0.1 µM, first compound 3 µM) of 32.6% and a viability, T/C (second compound 0.316 µM, first compound 0.00949 µM) of 83.9%. The viability, T/C (second compound 0.316 µM, first compound 0.03 µM) was 87%, the viability, T/C (second compound 0.316 µM, first compound 0.0949 µM) was 47.3% and the viability, T/C (second compound 0.316 µM, first compound 0.3 µM) was 22.4%. It also gave a viability, T/C (second compound 0.316 µM, first compound 0.949 µM) of 29%, a viability, T/C (second compound 0.316 µM, first compound 3 µM) of 29.9% and a viability, T/C (second compound 1 µM, first compound 0.00949 µM) of 76.5%. The viability, T/C (second compound 1 µM, first compound 0.03 µM) was 75.6%, the viability, T/C (second compound 1 µM, first compound 0.0949 µM) was 45.9% and the viability, T/C (second compound 1 µM, first compound 0.3 µM) was 21.6%. The viability, T/C (second compound 1 µM, first compound 0.949 µM) was 25.3%, the viability, T/C (second compound 1 µM, first compound 3 µM) was 28.9% and the viability, T/C (second compound 3.16 µM, first compound 0.00949 µM) was 54.8%. It also gave a viability, T/C (second compound 3.16 µM, first compound 0.03 µM) of 61.6%, a viability, T/C (second compound 3.16 µM, first compound 0.0949 µM) of 26.4% and a viability, T/C (second compound 3.16 µM, first compound 0.3 µM) of 20.2%. For the same compound, the viability, T/C (second compound 3.16 µM, first compound 0.949 µM) was 22.2%, the viability, T/C (second compound 3.16 µM, first compound 3 µM) was 24.9% and the viability, T/C (second compound 10 µM, first compound 0.00949 µM) was 47.1%. The viability, T/C (second compound 10 µM, first compound 0.03 µM) was 49.8%, the viability, T/C (second compound 10 µM, first compound 0.0949 µM) was 14.4% and the viability, T/C (second compound 10 µM, first compound 0.3 µM) was 17.9%. The viability, T/C (second compound 10 µM, first compound 0.949 µM) was 21.1% and the viability, T/C (second compound 10 µM, first compound 3 µM) was 22.1%.

With `COc1c(OCCCN2CCOCC2)ccc2c3n(c(=NC(=O)c4cnc(N)nc4)nc12)CCN3` + CC(C)NCC(C(=O)N1CCN(c2ncnc3c2C(C)CC3O)CC1)c1ccc(Cl)cc1 the IC50 [1] was 49.2 nM, the IC50 [2] was 31.7 nM and the IC50 [3] was 14.6 nM. It also gave an IC50 [4] of less than 3.16 nM, an IC50 [5] of less than 3.16 nM and a viability, T/C [6] of 86%. It also gave a viability, T/C [7] of 80.2%, a viability, T/C [8] of 58.3% and a viability, T/C [9] of 37%. The viability, T/C (second compound 0.1 µM, first compound 0.316 µM) was 9.3%, the viability, T/C (second compound 0.1 µM, first compound 1 µM) was 11.8% and the viability, T/C [10] was 75.1%. For the same compound, the viability, T/C [11] was 65.8%, the viability, T/C [12] was 49.8% and the viability, T/C [13] was 30.5%. For the same compound, the viability, T/C (second compound 0.316 µM, first compound 0.316 µM) was 9.83%, the viability, T/C (second compound 0.316 µM, first compound 1 µM) was 12.4% and the viability, T/C [14] was 61.9%. It also gave a viability, T/C [15] of 56.4%, a viability, T/C [16] of 37.7% and a viability, T/C [17] of 22%. The viability, T/C (second compound 1 µM, first compound 0.316 µM) was 10.7%, the viability, T/C (second compound 1 µM, first compound 1 µM) was 11.2% and the viability, T/C (second compound 3.16 µM, first compound 0.00316 µM) was 45.9%. For the same compound, the viability, T/C (second compound 3.16 µM, first compound 0.01 µM) was 48.7%, the viability, T/C (second compound 3.16 µM, first compound 0.0316 µM) was 35.4% and the viability, T/C (second compound 3.16 µM, first compound 0.1 µM) was 32%. For the same compound, the viability, T/C (second compound 3.16 µM, first compound 0.316 µM) was 9.39%, the viability, T/C (second compound 3.16 µM, first compound 1 µM) was 10.6% and the viability, T/C (second compound 10 µM, first compound 0.00316 µM) was 33.8%. The viability, T/C (second compound 10 µM, first compound 0.01 µM) was 34.9%, the viability, T/C (second compound 10 µM, first compound 0.0316 µM) was 37.4% and the viability, T/C (second compound 10 µM, first compound 0.1 µM) was 21.7%. It also gave a viability, T/C (second compound 10 µM, first compound 0.316 µM) of 6.28% and a viability, T/C (second compound 10 µM, first compound 1 µM) of 5.07%.

With `CC1(C)CCC(CN2CCN(c3ccc(C(=O)NS(=O)(=O)c4ccc(NCC5CCOCC5)c([N+](=O)[O-])c4)c(Oc4cnc5[nH]ccc5c4)c3)CC2)=C(c2ccc(Cl)cc2)C1` the viability, T/C (compound 0.0316 µM) was 88.4% and 102%, the viability, T/C (compound 0.1 µM) was 102% and 108% and the viability, T/C (compound 0.316 µM) was 97.2% and 109%. For the same compound, the viability, T/C (compound 1 µM) was 94.4% and 98.2%, the viability, T/C (compound 3.16 µM) was 84.6% and 98.1% and the viability, T/C (compound 10 µM) was 16.5% and 20.3%. For the same compound, the IC50 (curve of compound) was 5680 nM and 6450 nM.

For `C=CCn1c(=O)c2cnc(Nc3ccc(N4CCN(C)CC4)cc3)nc2n1-c1cccc(C(C)(C)O)n1`, the viability, T/C (compound 0.0316 µM) was 104% and 99.2%, the viability, T/C (compound 0.1 µM) was 98.9% and 108% and the viability, T/C (compound 0.316 µM) was 58.2% and 76.1%. For the same compound, the viability, T/C (compound 1 µM) was 34% and 44.2%, the viability, T/C (compound 3.16 µM) was 28.5% and 29.7% and the viability, T/C (compound 10 µM) was 28.2% and 33.6%. For the same compound, the IC50 (curve of compound) was 463 nM and 765 nM.

With `CCN1CCN(Cc2ccc(Nc3ncc(F)c(-c4cc(F)c5nc(C)n(C(C)C)c5c4)n3)nc2)CC1` the viability, T/C (compound 0.01 µM) was 97.5% [middle of 13 runs], the viability, T/C (compound 0.0316 µM) was 101% [middle of 13 runs] and the IC50 (compound alone, run of 06/01/2021) was greater than 1000 nM.

In the case of `CC(C)(C)c1cnc(CSc2cnc(NC(=O)C3CCNCC3)s2)o1`, the viability, T/C (compound 0.00949 µM) is reported as 105% and 109%, the viability, T/C (compound 0.03 µM) is reported as 100% and 104% and the viability, T/C (compound 0.0949 µM) is reported as 51.5% and 37.9%. The viability, T/C (compound 0.3 µM) was 22% and 24.1%, the viability, T/C (compound 0.949 µM) was 27.4% and 28.2% and the viability, T/C (compound 3 µM) was 35.6% and 32.6%. The IC50 (curve of compound) was 100 nM and 76.7 nM.

`CC(C)n1nc(-c2ccc3oc(N)nc3c2)c2c(N)ncnc21` + CCN1CCN(Cc2ccc(Nc3ncc(F)c(-c4cc(F)c5nc(C)n(C(C)C)c5c4)n3)nc2)CC1 gave an IC50 (curve of first compound, second compound 0.01 µM) of 10.6 nM, an IC50 (curve of first compound, second compound 0.0316 µM) of 7.31 nM and an IC50 [1] of 7.34 nM. The IC50 [2] was 14.5 nM, the IC50 [3] was 25.6 nM and the viability, T/C (second compound 0.01 µM, first compound 0.000316 µM) was 90.9%. The viability, T/C (second compound 0.01 µM, first compound 0.001 µM) was 103%, the viability, T/C (second compound 0.01 µM, first compound 0.00316 µM) was 71.1% and the viability, T/C (second compound 0.01 µM, first compound 0.01 µM) was 55.6%. The viability, T/C (second compound 0.01 µM, first compound 0.0316 µM) was 21.6%, the viability, T/C (second compound 0.01 µM, first compound 0.1 µM) was 11.9% and the viability, T/C (second compound 0.0316 µM, first compound 0.000316 µM) was 89.3%. For the same compound, the viability, T/C (second compound 0.0316 µM, first compound 0.001 µM) was 90.2%, the viability, T/C (second compound 0.0316 µM, first compound 0.00316 µM) was 73.3% and the viability, T/C (second compound 0.0316 µM, first compound 0.01 µM) was 40.8%. For the same compound, the viability, T/C (second compound 0.0316 µM, first compound 0.0316 µM) was 21%, the viability, T/C (second compound 0.0316 µM, first compound 0.1 µM) was 13.8% and the viability, T/C (second compound 0.1 µM, first compound 0.000316 µM) was 95.4%. The viability, T/C (second compound 0.1 µM, first compound 0.001 µM) was 94%, the viability, T/C [6] was 69.2% and the viability, T/C [7] was 44.6%. The viability, T/C [8] was 19.3%, the viability, T/C [9] was 16.8% and the viability, T/C (second compound 0.316 µM, first compound 0.000316 µM) was 116%. The viability, T/C (second compound 0.316 µM, first compound 0.001 µM) was 101%, the viability, T/C [10] was 78.2% and the viability, T/C [11] was 58.8%. It also gave a viability, T/C [12] of 34.4%, a viability, T/C [13] of 28.7% and a viability, T/C (second compound 1 µM, first compound 0.000316 µM) of 102%. The viability, T/C (second compound 1 µM, first compound 0.001 µM) was 83.1%, the viability, T/C [14] was 80.6% and the viability, T/C [15] was 55.3%. It also gave a viability, T/C [16] of 47.8% and a viability, T/C [17] of 41.6%.

`CCCS(=O)(=O)Nc1ccc(F)c(C(=O)c2c[nH]c3ncc(-c4ccc(Cl)cc4)cc23)c1F` was tested, and the viability, T/C (compound 0.0316 µM) was 102% and 98.6%, the viability, T/C (compound 0.1 µM) was 106% and 100% and the viability, T/C (compound 0.316 µM) was 102% and 96.2%. For the same compound, the viability, T/C (compound 1 µM) was 104% and 97%, the viability, T/C (compound 3.16 µM) was 99.4% and 93.1% and the viability, T/C (compound 10 µM) was 105% and 97.9%. For the same compound, the IC50 (curve of compound) was greater than 10000 nM.
